Experimental data taken from PMC4666608, “Metabolic Profiling of Chicken Embryos Exposed to Perfluorooctanoic Acid (PFOA) and Agonists to Peroxisome Proliferator-Activated Receptors” (PLoS ONE, 2015).
Several values for one entry are separate records, joined by “and”; a condition that tells them apart may be missing. Identical values can stand only once.

Tests used:
chicken embryos [1] = assay: Embryo mortality after in ovo exposure (air sac injection E7, examined E12); assay type: in vivo, Gallus gallus domesticus
Description: Controls were injected with 20 μL vehicle only (DMSO).
Embryos were dissected and sampled on E12. The treatment group was concealed to the one carrying out embryo dissections and the order of dissection of the embryos was randomized. The embryos were examined for viability and gross morphology, e.g. appearance of the liver. The sex was determined by the presence of a pair of testes or an ovary.
Mortality rates were analyzed with Fisher’s exact test.

chicken embryos [2] = assay: Plasma lipids (total, LDL, HDL cholesterol, triacylglycerols), photometric; details: for HDL-C in plasma, mean ± SD / LDL-C in plasma, mean ± SD / LDL/HDL in plasma, mean ± SD / Total cholesterol in plasma, mean ± SD / Triacylglycerols in plasma, mean ± SD: E12; for LDL/HDL: plasma
Description: The experimental procedures in this study were approved by the Uppsala Ethical Committee for Research on Animals (Permit number C 211/12). Fertilized chicken eggs (Gallus gallus domesticus) were obtained from a local breeder (Ova Production AB, Vittinge, Sweden). The egg weights were 60 ± 4 g (mean and standard deviation). The eggs were incubated at 37.5°C and 60% relative humidity with automatic turning every six hours. The day the eggs were placed in the incubator was defined as embryonic day zero (E0). Chicken embryos were exposed to test substances by air sac injection in eggs incubated for seven days (E7). At this stage, the extraembryonic allantoic blood vessel network has grown to cover the inner shell membrane beneath the air sac and the injected substance will come in direct contact with the vascular network. The exposures were performed as follows: Unfertilized eggs and poorly developing embryos were recognized by candling and were sorted out. Eggs with embryos of normal size were collected and randomly distributed into the different treatment groups. On E7, the blunt end of each egg was wiped with alcohol and a small hole was drilled through the shell above the air sac. The dissolved test substance (20 μl) was deposited onto the inner shell membrane in the air sac and the hole was sealed with melted paraffin wax. Following injection, eggs were held horizontally and rotated for a few seconds to allow dispersal over the inner shell membrane in the air sac. Each egg was marked with a number specifying the treatment group and was placed at a random location in the incubator.
The doses were 150 μg/egg (approximately 2.5 mg/kg egg) for GW7647 and rosiglitazone and 50, 250 or 1000 μg/egg for PFOA (approximately 0.83, 4.2 and 18 mg/kg egg, respectively). Controls were injected with 20 μL vehicle only (DMSO). Due to the large number of embryos required, the experiment was divided into four replicate experiments (replicate A-D) performed the same way but on separate occasions. The number of exposed embryos was 10–15 for each treatment group and replicate.
A subset of randomly chosen embryos from each group (except the 1000 μg/egg group) was sampled for metabolomic analysis of allantoic fluid and blood plasma. Samples of allantoic fluid and blood were collected before decapitation and dissection of the embryo as described below. The egg shell was removed above the air cell without disrupting the inner shell membrane. Allantoic fluid was collected by gently inserting a needle through the inner shell membrane and into the allantoic sac and then aspiring the fluid with a syringe. The samples were placed in microtubes on ice during sampling and then stored at -70°C until processed for metabolomic analysis. Blood was collected from the allantoic artery, just proximal to its first branch. The artery was gently cleaned from membranes, lifted with a small spoon and then punctured with a needle. Blood flowing into the spoon was immediately collected with heparinized capillaries. Blood was stored in heparinized microtubes on ice during sampling and was then centrifuged at a speed of 1300g for 10 min at 4°C. Plasma was collected and stored at -70°C. The embryos were killed by decapitation and dissected immediately following blood sampling.
Total cholesterol, low-density lipoprotein (LDL) cholesterol, high-density lipoprotein (HDL) cholesterol, and triacylglycerols in plasma were analyzed with an Architect c8000 (Abbott Diagnostics, Abbott Park, IL, USA), using a photometric method, at the department of Clinical Chemistry and Pharmacology, Uppsala University Hospital, Sweden. The laboratory is accredited according to EN/ISO 15189 medical laboratory requirements. A total of 80 samples were analyzed; control: 7 females and 8 males; GW7647: 7 females and 8 males; rosiglitazone: 5 females and 12 males; 50 μg PFOA/egg: 11 females and 6 males; 250 μg PFOA/egg: 10 females and 6 males.

[3] = in ovo injection E7, sampled E12, 150 μg/egg
[4] = in ovo injection E7, sampled E12, PFOA 50 μg/egg
[5] = in ovo injection E7, sampled E12, PFOA 250 μg/egg
[6] = in ovo injection E7, sampled E12, PFOA 1000 μg/egg
[7] = group PFOA 50 (µg/egg), group mean
[8] = group PFOA 50 (µg/egg), individual embryos
[9] = group PFOA 250 (µg/egg), group mean
[10] = group PFOA 250 (µg/egg), individual embryos

CN(CCOc1ccc(CC2SC(=O)NC2=O)cc1)c1ccccn1 (stereo not shown) [Rosiglitazone, rosiglitazone, reference compound]
Mortality rate (chicken embryos [1]; [3]): 5% | Mortality rate, Ratio (chicken embryos [1]; [3]): 2/40 | HDL-C in plasma, mean ± SD (chicken embryos [2]; 150 μg/egg): 0.60 ± 0.06 mM | LDL-C in plasma, mean ± SD (chicken embryos [2]; 150 μg/egg): 1.5 ± 0.2 mM | LDL/HDL in plasma, mean ± SD (chicken embryos [2]; 150 μg/egg): 2.5 ± 0.4 | Total cholesterol in plasma, mean ± SD (chicken embryos [2]; 150 μg/egg): 5.2 ± 0.4 mM | Triacylglycerols in plasma, mean ± SD (chicken embryos [2]; 150 μg/egg): 5.4 ± 0.8 mM | HDL-Cholesterol in plasma (chicken embryos [2]; group mean): 0.60 mM | LDL-Cholesterol in plasma (chicken embryos [2]; group mean): 1.5 mM | Total Cholesterol in plasma (chicken embryos [2]; group mean): 5.2 mM | Triacylglycerols in plasma (chicken embryos [2]; group mean): 5.4 mM | LDL/HDL (chicken embryos [2]; group mean): 2.5 | HDL-Cholesterol in plasma (chicken embryos [2]; individual embryos): 0.65 mM and 0.59 mM and 0.53 mM and 0.58 mM and 0.55 mM and 0.71 mM and 0.6 mM and 0.7 mM and 0.57 mM and 0.51 mM and 0.69 mM and 0.52 mM and 0.61 mM | LDL-Cholesterol in plasma (chicken embryos [2]; individual embryos): 2.00 mM and 1.70 mM and 1.20 mM and 1.50 mM and 1.10 mM and 1.60 mM and 1.40 mM and 1.00 mM and 1.80 mM | Total Cholesterol in plasma (chicken embryos [2]; individual embryos): 5.8 mM and 4.8 mM and 4.1 mM and 5.4 mM and 4.9 mM and 5.5 mM and 5.9 mM and 5.2 mM and 5.3 mM and 5 mM and 5.6 mM | Triacylglycerols in plasma (chicken embryos [2]; individual embryos): 4.5 mM and 4.3 mM and 4.7 mM and 6 mM and 5 mM and 5.3 mM and 5.6 mM and 4.6 mM and 7.1 mM and 6.3 mM and 6.4 mM and 5.5 mM | LDL/HDL (chicken embryos [2]; individual embryos): 3.1 and 2.9 and 2.3 and 2.6 and 2.7 and 2.1 and 2.8 and 1.7 and 2.5 and 2.0 and 2.2 and 3.0 and 3.5

CC(C)(Sc1ccc(CCN(CCCCC2CCCCC2)C(=O)NC2CCCCC2)cc1)C(=O)O [GW7647, reference compound]
Mortality rate (chicken embryos [1]; [3]): 0% | Mortality rate, Ratio (chicken embryos [1]; [3]): 0/40 | HDL-C in plasma, mean ± SD (chicken embryos [2]; 150 μg/egg): 0.63 ± 0.05 mM | LDL-C in plasma, mean ± SD (chicken embryos [2]; 150 μg/egg): 1.5 ± 0.2 mM | LDL/HDL in plasma, mean ± SD (chicken embryos [2]; 150 μg/egg): 2.4 ± 0.4 | Total cholesterol in plasma, mean ± SD (chicken embryos [2]; 150 μg/egg): 5.5 ± 0.3 mM | Triacylglycerols in plasma, mean ± SD (chicken embryos [2]; 150 μg/egg): 4.9 ± 0.7 mM

O=C(O)C(F)(F)C(F)(F)C(F)(F)C(F)(F)C(F)(F)C(F)(F)C(F)(F)F [PFOA, perfluorooctanoic acid]
Mortality rate (chicken embryos [1]; PFOA 1000 μg/egg, replicate A): 40% | Mortality rate (chicken embryos [1]; PFOA 1000 μg/egg, replicate B): 60% | Mortality rate (chicken embryos [1]; PFOA 1000 μg/egg, replicate C): 33% | Mortality rate (chicken embryos [1]; PFOA 1000 μg/egg, replicate D): 7% | Dose with increased mortality (chicken embryos [1]; exposed E7 to E12): 18 mg/kg egg | Dose with no effect on survival (no effect level) (chicken embryos [1]; exposed E7 to E12): 4.2 mg/kg egg | Mortality (chicken embryos [1]; follow-up study, PFOA 1000 μg/egg, N = 25, control 12%): 40% | Mortality rate (chicken embryos [1]; [4]): 5% | Mortality rate, Ratio (chicken embryos [1]; [4]): 2/40 | Mortality rate (chicken embryos [1]; [5]): 2.5% | Mortality rate, Ratio (chicken embryos [1]; [5]): 1/40 | Mortality rate (chicken embryos [1]; [6]): 35% and 35 ^*** % | Mortality rate, Ratio (chicken embryos [1]; [6]): 19/54 | HDL-C in plasma, mean ± SD (chicken embryos [2]; PFOA 50 μg/egg): 0.59 ± 0.06 mM | LDL-C in plasma, mean ± SD (chicken embryos [2]; PFOA 50 μg/egg): 1.5 ± 0.2 mM | LDL/HDL in plasma, mean ± SD (chicken embryos [2]; PFOA 50 μg/egg): 2.5 ± 0.3 | Total cholesterol in plasma, mean ± SD (chicken embryos [2]; PFOA 50 μg/egg): 5.2 ± 0.8 mM | Triacylglycerols in plasma, mean ± SD (chicken embryos [2]; PFOA 50 μg/egg): 5.0 ± 0.8 mM | HDL-C in plasma, mean ± SD (chicken embryos [2]; PFOA 250 μg/egg): 0.57 ± 0.05 mM | LDL-C in plasma, mean ± SD (chicken embryos [2]; PFOA 250 μg/egg): 1.5 ± 0.3 mM | LDL/HDL in plasma, mean ± SD (chicken embryos [2]; PFOA 250 μg/egg): 2.6 ± 0.5 | Total cholesterol in plasma, mean ± SD (chicken embryos [2]; PFOA 250 μg/egg): 5.0 ± 0.5 mM | Triacylglycerols in plasma, mean ± SD (chicken embryos [2]; PFOA 250 μg/egg): 5.0 ± 0.7 mM | HDL-Cholesterol in plasma (chicken embryos [2]; [7]): 0.59 mM | LDL-Cholesterol in plasma (chicken embryos [2]; [7]): 1.5 mM | Total Cholesterol in plasma (chicken embryos [2]; [7]): 5.2 mM | Triacylglycerols in plasma (chicken embryos [2]; [7]): 5.0 mM | LDL/HDL (chicken embryos [2]; [7]): 2.5 | HDL-Cholesterol in plasma (chicken embryos [2]; [8]): 0.63 mM and 0.53 mM and 0.55 mM and 0.69 mM and 0.59 mM and 0.56 mM and 0.65 mM and 0.49 mM and 0.62 mM and 0.64 mM and 0.48 mM and 0.58 mM | LDL-Cholesterol in plasma (chicken embryos [2]; [8]): 1.90 mM and 1.20 mM and 1.50 mM and 1.80 mM and 1.40 mM and 1.30 mM and 1.60 mM and 1.00 mM | Total Cholesterol in plasma (chicken embryos [2]; [8]): 6 mM and 4.6 mM and 5.1 mM and 5.7 mM and 5.9 mM and 5 mM and 5.4 mM and 6.1 mM and 3.8 mM and 5.3 mM and 4.3 mM and 4.2 mM and 4.1 mM | Triacylglycerols in plasma (chicken embryos [2]; [8]): 6 mM and 4.8 mM and 5.1 mM and 5.7 mM and 5 mM and 4.9 mM and 5.4 mM and 4.5 mM and 6.2 mM and 4.2 mM and 3.6 mM and 3.5 mM | LDL/HDL (chicken embryos [2]; [8]): 3.0 and 2.3 and 2.7 and 2.9 and 2.2 and 2.4 and 2.1 and 2.0 and 2.6 and 3.1 and 2.5 | HDL-Cholesterol in plasma (chicken embryos [2]; [9]): 0.57 mM | LDL-Cholesterol in plasma (chicken embryos [2]; [9]): 1.5 mM | Total Cholesterol in plasma (chicken embryos [2]; [9]): 5.0 mM | Triacylglycerols in plasma (chicken embryos [2]; [9]): 5.0 mM | LDL/HDL (chicken embryos [2]; [9]): 2.6 | HDL-Cholesterol in plasma (chicken embryos [2]; [10]): 0.52 mM and 0.54 mM and 0.49 mM and 0.56 mM and 0.55 mM and 0.57 mM and 0.51 mM and 0.64 mM and 0.58 mM and 0.61 mM and 0.63 mM and 0.53 mM and 0.6 mM | LDL-Cholesterol in plasma (chicken embryos [2]; [10]): 2.20 mM and 1.40 mM and 1.50 mM and 1.10 mM and 1.20 mM and 1.80 mM and 1.30 mM and 1.70 mM and 1.60 mM | Total Cholesterol in plasma (chicken embryos [2]; [10]): 5.2 mM and 4 mM and 4.9 mM and 5.7 mM and 5 mM and 5.4 mM and 4.2 mM and 4.4 mM and 4.7 mM and 5.1 mM | Triacylglycerols in plasma (chicken embryos [2]; [10]): 5.1 mM and 5.7 mM and 3.8 mM and 4.5 mM and 6 mM and 4.7 mM and 5.4 mM and 4.8 mM and 4.2 mM and 4.9 mM | LDL/HDL (chicken embryos [2]; [10]): 4.2 and 2.6 and 2.9 and 2.7 and 2.0 and 2.4 and 2.8 and 2.1 and 1.7 and 2.2
